Test results published in patent publication US9629828B2, “Methods of treating traveler's diarrhea and hepatic encephalopathy” (priority 2008, dated 2017).

Assays:
[1] = test system: liver transplant patients who presented with HE; test: Chart review of 39 liver transplant patients with HE; format: in vivo, human
patients with HE [2] = format: in vivo, human
Description: Total number of hospitalizations, duration of hospitalizations, HE endpoints, and cost of therapy were compared between the 2 treatment regimens.

patients with HE [3] = details: rifaximin 1200 mg/day, neomycin 3 g/day; cited from earlier work
[4] = male, human, in vivo

Molecule: OC[C@H]1O[C@@H](O[C@@H]2[C@@H](CO)OC(O)(CO)[C@H]2O)[C@H](O)[C@@H](O)[C@H]1O (mixture of isomers) [lactulose]
- hospitalizations reported ([1]; 15 rifaximin, 24 lactulose patients): Nineteen
- average length of stay ([1]; human, in vivo): 5.0 days
- patients with Conn scores of 3 or 4 (patients with HE [2]; end of treatment period): 25%
- days hospitalized (patients with HE [2]; human, in vivo): 7.3 days
- patients with asterixis at end of treatment period (patients with HE [2]; human, in vivo): 93%
- patients with diarrhea, flatulence, and abdominal pain (patients with HE [2]; human, in vivo): significantly more patients
- hospitalizations (patients with HE [2]; rifaximin 400 mg 3 times/day, lactulose 30 mL twice daily): 1.6

Molecule: neomycin
- efficacy in patients with HE (patients with HE [3]): comparable efficacy

Molecule: CO[C@H]1/C=C/O[C@@]2(C)Oc3c(C)c(O)c4c(O)c(c5c(nc6cc(C)ccn65)c4c3C2=O)NC(=O)/C(C)=C\C=C\[C@H](C)[C@H](O)[C@@H](C)[C@@H](O)[C@@H](C)[C@H](OC(C)=O)[C@@H]1C [14C-Rifaximin]
- amount of radioactivity in urine (bound) [4]: < 0.4 % of the dose
